Results taken from patent US8912227B1, “Bicyclic pyrrole derivatives useful as agonists of GPR120” (Janssen Pharmaceutica NV, priority 2014, dated 2014).

Key:
Human GPR120 short form [1] = molecular target: T1, Human GPR120 short form (Homo sapiens, UniProt Q5NUL3); test: Human GPR120 calcium flux assay, Procedure Calcium A; assay type: cell-based; settings: HEK-293 cells expressing human GPR120 short form, 2500 cells/well, FLIPR
T1 construct: expressed in transfected cells
T1 sequence (Q5NUL3 1-361): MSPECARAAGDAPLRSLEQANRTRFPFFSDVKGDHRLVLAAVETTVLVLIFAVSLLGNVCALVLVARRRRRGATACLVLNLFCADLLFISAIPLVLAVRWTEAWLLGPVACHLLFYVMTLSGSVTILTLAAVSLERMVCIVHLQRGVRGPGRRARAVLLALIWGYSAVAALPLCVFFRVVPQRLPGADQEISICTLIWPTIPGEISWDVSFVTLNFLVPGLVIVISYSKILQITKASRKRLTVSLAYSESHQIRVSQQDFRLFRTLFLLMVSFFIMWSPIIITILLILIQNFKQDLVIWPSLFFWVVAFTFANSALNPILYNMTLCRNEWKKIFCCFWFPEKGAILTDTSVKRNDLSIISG
In short: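 HEK293 cells stably expressing the human GPR120 short splice variant (NM_001195755.1) were seeded at 2500 cells/well, serum-starved 1 h and loaded with Fluo-4 NW plus probenecid. Compounds (100–0.012 μM solutions, 0.2% final DMSO) were added, and FLIPR calcium flux was read for 300 s. EC50 came from a variable-slope fit (Hill <2) of Fmax−Fmin.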

Human GPR120 short form [2] = molecular target: T1, Human GPR120 short form; test: Human GPR120 calcium flux assay, Procedure Calcium B; assay type: cell-based; settings: HEK-293 cells expressing human GPR120 short form, 4200 cells/well, FLIPR

EC50 (Human GPR120 short form [1])	EC50 (Human GPR120 short form [2])	Structure (SMILES)
353 nM		Cc1c(CCC(=O)O)ccc(OCc2cccn2-c2ccc(Cl)cc2)c1C [Compound 1, 3-(4-{[1-(4-Chlorophenyl)-1H-pyrrol-2-yl]methoxy}-2,3-dimethylphenyl)propanoic acid]
1010 nM	162 nM	OCCCc1ccc(OCc2c(C(F)(F)F)ccn2-c2ccc(Cl)cc2)c(F)c1F [Compound 29, 3-(4-{[1-(4-Chlorophenyl)-3-(trifluoromethyl)-1H-pyrrol-2-yl]methoxy}-2,3-difluorophenyl)propan-1-ol]
517 nM	40 nM	CCc1ccc(-n2ccc(C(F)(F)F)c2COc2ccc(CCC(=O)O)c(F)c2F)cc1 [Compound 34, 3-(4-[[1-(4-ethylphenyl)-3-(trifluoromethyl)-1H-pyrrol-2-yl]methoxy]-2,3-difluorophenyl)propanoic acid]
306 nM	50 nM	Cc1ccc(-n2ccc(C(F)(F)F)c2COc2c(F)cc(CCC(=O)O)cc2F)cc1 [Compound 39, 3-(3,5-difluoro-4-[[1-(4-methylphenyl)-3-(trifluoromethyl)-1H-pyrrol-2-yl]methoxy]phenyl)propanoic acid]
